{
  "source": "patent US9084770B2",
  "about": "“Modulation of insulin like growth factor I receptor expression in cancer” (Antisense Therapeutics, Ltd., priority 2008, dated 2015)",
  "key": {"PC3 cells [1]": {"system": "PC3 cells", "assay": "PC3 cell viability, crystal violet assay", "format": "cell-based, human", "conditions": "FBS media, achieved by 100 nM, three days after treatment", "experimental": "(§1) Established methods were used to test the activity of IGF-IR antisense oligonucleotide on LNCaP and PC-3 cell growth (crystal violet assay) and apoptosis (FACS). Dose- and sequence-specific suppression of IGF-IR mRNA and protein expression in ATL1101-treated LNCaP and PC3 PC cell lines in vitro were observed by QT-PCR and western blotting. Effects of the IGF-IR antisense oligonucleotide on various putative targets, including IGF-IR and downstream targets were evaluated using western blotting.\nCells were transfected with indicated concentrations of ATL1101, control oligodeoxynucleotides or oligofectamine as in FIGS. 1A(i)-1A(ii). Three days after treatment, cell viability was determined by crystal violet assay. Viable cell density was normalized to that of cells treated with oligofectamine. Points, means of triplicate analysis; bars, SE. *, p<0.05 differs from control oligodeoxynucleotide treatment group. **, p<0.01 differs from control oligodeoxynucleotide treatment group by Student's t test."}, "[2]": {"system": "IGF-IRβ, p-AKT, p-ERK1/2, cleaved PARP", "assay": "Intracellular signaling in LNCaP and PC3 cells, immunoblot", "format": "cell-based, human", "conditions": "100 nM", "experimental": "The suppression of intracellular signaling in IGF-IR antisense oligonucleotide-treated LNCaP (FIG. 3A) and PC3 (FIG. 3B) in vitro is shown in FIGS. 3A-3B. LNCaP or PC3 cells were transfected with 100 nM ATL1101 or control oligodeoxynucleotide (ISIS 306064) for two days. Cells were then cultured in FBS media for one day and in serum-free media for one day. Whole cell lysates (30 μg) were subjected to SDS-PAGE and immunoblotted to assess IGF-IRβ, p-AKT, total AKT, p-ERK1/2, total ERK1/2, cleaved PARP, and vinculin protein levels. Oligo, oligofectamine treated cells only."}, "PC3 cells [3]": {"system": "PC3 cells", "assay": "PC3 cell cycle and apoptosis, flow cytometry with propidium iodide", "format": "cell-based, human", "conditions": "PC3, FBS condition, 200 nM", "experimental": "as §1\nThe Effect of IGF-IR silencing with IGF-IR antisense oligonucleotide (ATL1101) on LNCaP and PC3 cell apoptosis and cell cycle is shown in FIGS. 4A(i)-(ii), 4B, 4C(i)-(ii), and Table 2. Cells were transfected with indicated concentrations of ATL1101, control oligodeoxynucleotide or oligofectamine as in FIGS. 1A(i)-1B(ii). Two days after treatment, cell cycle analysis was determined by flow cytometry using propidium iodide staining. […] In FIGS. 4C(i)-(ii), LNCaP (FIG. 4C (i)) or PC-3 (FIG. 4C (ii)) cells were transfected with indicated concentration of ATL1101 or control oligodeoxynucleotide (ISIS 306064) for two days. Cells were then cultured in FBS media for one day and in serum-free media for one day. Whole cell lysates (30 μg) were subjected to SDS-PAGE and immunoblotted to assess Cyclin D1, Cyclin E, p-RB, total Rb, and p27 protein levels. Oligo, oligofectamine treated cells only."}, "PC3 tumors [4]": {"system": "PC3 tumors", "assay": "PC-3 xenograft, tumor volume (monotherapy)", "format": "in vivo, mice", "conditions": "15 mg/kg i.p.", "experimental": "One million PC-3 or LNCaP cells were injected subcutaneously in athymic mice. For LNCaP xenografts, when PSA values exceeded 50 ng/ml, mice were castrated and randomly selected for treatment with ATL1101 or control oligodeoxynucleotide (15 mg/kg) injected i.p. once daily for 7 days and 3 times per week thereafter. Blood samples were obtained from the tail vein of the mice once weekly to measure serum PSA by ELISA. For PC-3 xenografts, when tumors reached 100 mm^3, mice were randomly selected and treated with the same protocol as LNCaP.\nThe effects of IGF-IR antisense oligonucleotide treatment in LNCaP and PC-3 tumors in vivo are show in FIGS. 5A-5C. LNCaP cells were inoculated s.c. and when PSA values exceeded 50 ng/ml, mice were castrated and randomly selected for treatment with ATL1101 or control oligodeoxynucleotide (15 mg/kg) injected i.p. once daily for 7 days and 3 times per week thereafter. Blood samples were obtained from the tail vein of the mice once weekly to measure serum PSA by ELISA. PC-3 cells were inoculated s.c. and when tumors reached 100 mm^3, mice were randomly selected for treatment with the same protocol as LNCaP. Each point represents the mean tumor volume in each group containing 10 mice; bars, SE. * differs from control oligodeoxynucleotide treatment group (p<0.05) by Student's t test."}, "IGF-IRB subunit": {"system": "IGF-IRB subunit", "assay": "IGF-IRB immunoblot in PC3 cells with or without Paclitaxel", "format": "cell-based, human", "conditions": "50 nM, with or without 1 nM Paclitaxel", "excerpt": "Vinculin expression is shown as a loading control."}, "PC3 tumors [5]": {"system": "PC3 tumors", "assay": "PC-3 xenograft with Paclitaxel, mean tumor volume", "format": "in vivo, mice", "conditions": "for mean tumor size: 15 mg/kg i.p. oligonucleotide plus Paclitaxel; for mean tumor size, % of control: plus Paclitaxel", "excerpt": "In vivo treatments in a PC-3 xenograft model were done substantially as described by Zellweger et al., 2001. PC3 cells (2×10^6 cells) were xenografted by subcutaneous injection into recipient 6-8 week-old athymic nude (nu/nu) mice. When tumors reached 200 mm^3, mice were randomly assigned to one of two arms for treatment with 2′-MOE-modified IGF-IR antisense oligonucleotide (ATL1101) plus Paclitaxel, or mismatch control oligodeoxynucleotide ISIS 306064 plus Paclitaxel. Each experimental group consisted of 10 mice. After randomization, 15 mg/kg of ATL1101 antisense oligonucleotide or mismatch control oligonucleotide were injected intraperitoneal (i.p.) into each mouse once daily for the first 5 days and 3 times a week (every other day) thereafter for 7 weeks. On days 7, 9, 11, and on days 21, 23, and 25, 0.5 mg of polymeric micellar Paclitaxel was administered once daily by i.v. injection. Mean Tumor volume was measured once weekly for 8 weeks and calculated by the formula length×width×depth×0.5236.\nIn PC3 mice, after 5 weeks of treatment, mean tumor size in mice treated with Paclitaxel and mismatch control oligodeoxynucleotide was 326+/−40.9 mm^3 compared with 175+/−20.1 mm^3 in mice treated with Paclitaxel and ATL1101, or 53.7% of control (p<0.01). After 8 weeks of treatment, mean tumor size in mice treated with Paclitaxel and mismatch control oligodeoxynucleotide was 1417+/−222 mm^3 compared with 507+/−79.3 mm^3 in mice treated with Paclitaxel and ATL1101, or 35.8% of control (p<0.01)."}, "[6]": {"system": "insulin receptor IR-A, IR-B, IR-β protein", "assay": "Insulin receptor transcripts and protein in PC3 Ptx-R cells", "format": "cell-based, human", "excerpt": "The PC3 Ptx-R cells retain sensitivity to ATL1101-induced IGF-IR down regulation at the mRNA and protein level as shown in FIGS. 11A-C. […] ATL1101 and the control oligodeoxynucleotide ISIS 306064 had no effect on either of the alternative spliced isoform transcripts of the insulin receptor, IR-A, IR-B or IR-β protein or vinculin protein levels."}},
  "note": "Marks after values point to notes of the source that are not given here.",
  "data": [
    {"substance": "cgaaggaaacaatactccga (CGAAGGAAACAATACTCCGA; 2'-MOE modified, pattern not given here) [ISIS 175317, 2′-MOE-modified IGF-IR antisense oligonucleotide, also known as ATL1101]", "values": [
      {"measurement": "maximum reduction of cell viability relative to control", "setting": "PC3 cells [1]", "result": "~60", "unit": "%"},
      {"measurement": "IGF-IR expression", "setting": "[2]", "result": "undetectable"},
      {"measurement": "activation of AKT and ERK1/2", "setting": "[2]", "result": "suppressed"},
      {"measurement": "cleaved PARP production", "setting": "[2]", "result": "increased"},
      {"measurement": "% of total cells, G0/G1", "setting": "PC3 cells [3]", "result": 19.3, "unit": "%"},
      {"measurement": "% of total cells, G2/M", "setting": "PC3 cells [3]", "result": 8.4, "unit": "%"},
      {"measurement": "% of total cells, S", "setting": "PC3 cells [3]", "result": 9.8, "unit": "%"},
      {"measurement": "% of total cells, Sub G0/G1", "setting": "PC3 cells [3]", "result": 62.5, "unit": "%"},
      {"measurement": "subG0/G1 + G0/G1:S + G2/M", "setting": "PC3 cells [3]", "result": "4.5**"},
      {"measurement": "tumor volume compared to control oligodeoxynucleotide", "setting": "PC3 tumors [4]", "result": "significantly reduced"},
      {"measurement": "IGF-IRB levels", "setting": "IGF-IRB subunit", "result": "specifically reduced"},
      {"measurement": "mean tumor size", "setting": "PC3 tumors [5]; after 5 weeks of treatment", "result": "175+/−20.1 mm^3"},
      {"measurement": "mean tumor size, % of control", "setting": "PC3 tumors [5]; after 5 weeks of treatment", "result": 53.7, "unit": "%"},
      {"measurement": "mean tumor size", "setting": "PC3 tumors [5]; after 8 weeks of treatment", "result": "507+/−79.3 mm^3"},
      {"measurement": "mean tumor size, % of control", "setting": "PC3 tumors [5]; after 8 weeks of treatment", "result": 35.8, "unit": "%"},
      {"measurement": "insulin receptor IR-A, IR-B transcripts or IR-β protein levels", "setting": "[6]", "result": "no effect"}
    ]}
  ]
}
